Data: patent US20230203004A1, “RSV INHIBITING 3-SUBSTITUTED QUINOLINE AND CINNOLINE DERIVATIVES” (Janssen Sciences Ireland Unlimited Company, priority 2020, published 2023)
Like-named read-outs stand apart in the source and are kept apart here.

Legend:
[1] = system: rgRSV224 virus; test: Antiviral activity: rgRSV224 (GFP) replication in HeLa cells; format: cell-based, respiratory syncytial virus (RSV)
In short: (§1)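 HeLa cells infected with GFP-expressing rgRSV224 at MOI 1 in RPMI/10% FBS, 0.05% DMSO, with 9 serial 4-fold compound dilutions; 3 days at 37 °C, GFP read by laser microscopy for EC50. Cytotoxicity: uninfected HeLa cells, 3 days, cellular ATP (ATPlite) for CC50.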

[2] = system: HeLa cells; test: Cytotoxicity in HeLa cells (ATP content, ATPlite kit); format: cell-based
In short: as §1

[3] = as above; format: cell-based; details: human
In short: as §1

[4] = HeLa cells, rgRSV224 MOI = 1, GFP expression three days post-virus exposure, averaged data of several repeat experiments, read-out: RSV HELA EC50
[5] = HeLa cells, three days incubation, ATP content, averaged data of several repeat experiments, read-out: TOX HELA CC50
[6] = read-out: RSV HELA EC50, HeLa cells, rgRSV224 MOI = 1, GFP expression three days post-virus exposure, averaged data of several repeat experiments
[7] = human respiratory syncytial virus, HeLa, 72 h, read-out: RSV HELA EC50, HeLa cells, rgRSV224 MOI = 1, GFP expression three days post-virus exposure, averaged data of several repeat experiments

With `COc1cc(C(=O)NCC(O)(c2nc(-c3ccc(F)cc3)c(Cl)c(C(C)(C)O)c2F)C(F)(F)F)cc2cc(C)nnc12` (single isomer, unassigned; (+)) [compound 248, (+)-N-{2-[5-Chloro-3-Fluoro-6-(4-Fluorophenyl)-4-(2-Hydroxypropan-2-yl)Pyridin-2-yl]-3,3,3-Trifluoro-2-Hydroxypropyl}-8-Methoxv-3-Methylcinnoline-6-Carboxamide] the EC50 [1, 4] was 0.5 µM and the CC50 [2, 5] was 41 µM.

`COc1cc(C(=O)NCC(O)(c2cc(C(C)(C)O)c(F)c(-c3ccc(F)cc3)n2)C(F)F)cc2cc(C)cnc12` (single isomer, unassigned; (-)) [compound 204, (-)-N-{3,3-Difluoro-2-[5-Fluoro-6-(4-Fluorophenyl)-4-(2-Hydroxypropan-2-yl)Pyridin-2-yl]-2-Hydroxypropyl}-8-Methoxy-3-Methylquinoline-6-Carboxamide] gave an EC50 [1, 6] of 0.001 µM and a CC50 ([2]; human, 3 days) of 48 µM.

With `COc1cc(C(=O)NCC(O)(c2cc(C(C)(C)O)c(F)c(-c3ccc(F)cc3)n2)C(F)F)cc2cc(C)c(F)nc12` (single isomer, unassigned; (-)) [compound 214, (-)-N-{3,3-Difluoro-2-[5-Fluoro-6-(4-Fluorophenyl)-4-(2-Hydroxypropan-2-yl)Pyridin-2-yl]-2-Hydroxypropyl}-2-Fluoro-8-Methoxy-3-Methylquinoline-6-Carboxamide] the EC50 [1, 6] was 0.0014 µM and the CC50 ([2]; human, 3 days) was 28 µM.

`COc1cc(C(=O)NCC(O)(c2cc(C(C)(C)O)c(Cl)c(-c3ccc(F)cc3)n2)C(C)C)cc2cc(C)nnc12` (single isomer, unassigned; (-)) [compound 231, (-)-N-{2-[5-Chloro-6-(4-Fluorophenyl)-4-(2-Hydroxypropan-2-yl)Pyridin-2-yl]-2-Hydroxy-3-Methylbutyl}-8-Methoxy-3-Methylcinnolme-6-Carboxamide] showed an EC50 [1, 4] of 0.00041 µM and a CC50 [2, 5] of 21 µM.

In the case of `COc1cc(C(=O)NCC(O)(c2cc(C(C)(C)O)c(F)c(-c3ccc(F)cc3)n2)C(F)F)cc2cc(C)nnc12` (single isomer, unassigned; (-)) [compound 250, (-)-N-{3,3-Difluoro-2-[5-Fluoro-6-(4-Fluorophenyl)-4-(2-Hydroxypropan-2-yl)Pyridin-2-yl]-2-Hydroxypropyl}-8-Methoxy-3-Methylcinnoline-6-Carboxamide], the EC50 [1, 6] is reported as 0.0014 µM and the CC50 ([2]; human, 3 days) is reported as 40 µM.

`COc1cc(C(=O)NCC(O)(c2cc(C(C)(C)O)c(F)c(-c3ccc(C(F)(F)F)cc3)n2)C2CC2)cc2cc(C)nnc12` (single isomer, unassigned; (-)) [compound 253] gave an EC50 [1, 4] of 0.00025 µM and a CC50 [2, 5] of 13 µM.

`COc1cc(C(=O)NCC(O)(c2cc(C(C)(C)O)c(F)c(-c3ccc(F)c(F)c3)n2)C2CC2)cc2cc(C)nnc12` (single isomer, unassigned; (-)) [compound 256] gave an EC50 [1, 4] of 0.00019 µM and a CC50 [2, 5] of 33 µM.

For `Cc1cc2cc(C(=O)NCC(O)(c3nc(-c4ccc(F)cc4)c(F)c(C(C)(C)O)c3F)C(F)(F)F)cc(OC3CC3)c2nn1` (single isomer, unassigned; (-)) [compound 262, (-)(Cyclopropyloxy)-N-{2-[3,5-Difluoro-6-(4-Fluorophenyl)-4-(2-Hydroxypropan-2-yl)Pyridin-2-yl]-3,3,3-Trifluoro-2-Hydroxypropyl}-3-Methylcinnoline-6-Carboxamide], the EC50 [1, 4] was 0.0019 µM and the CC50 [2, 5] was 45 µM.

Compound `Cc1cc2cc(C(=O)NCC(O)(c3nc(-c4ccc(F)cc4)c(Cl)c(C(C)(C)O)c3F)C(F)(F)F)cc(OC3CC3)c2nn1` (single isomer, unassigned; (-)) [compound 263] has an EC50 [1, 4] of 0.0027 µM and a CC50 [2, 5] of 47 µM.

`COc1cc(C(=O)NC[C@@](O)(c2nc(-c3ccc(F)cc3)c(F)c(C(C)(C)O)c2C)C2CC2)cc2cc(C)nnc12` [compound 245] showed an EC50 [1, 4] of 0.0029 µM and a CC50 [2] of 48 µM.

For `COc1cc(C(=O)NC[C@](O)(c2nc(-c3ccc(F)cc3)c(F)c(C(C)(C)O)c2C)C2CC2)cc2cc(C)nnc12` [compound 246], the EC50 [1, 4] was 0.2 µM and the CC50 [2] was 46 µM.

Compound `Cc1cc2cc(C(=O)NC[C@](O)(c3cc(C(C)(C)O)c(F)c(-c4ccc(F)cc4)n3)C3(F)CC3)cc(OC3CC3)c2nn1` [compound 317, (-)Cyclopropoxy-N-(2-(5-Fluoro-6-(4-Fluorophenyl)-4-(2-Hydroxypropan-2-yl)Pyridin-2-yl)-2-(1-Fluorocyclopropyl)-2-Hydroxyethyl)-3-Methylcinnoline-6-Carboxamide] has an EC50 [1, 6] of 0.00087 µM and a CC50 ([2]; human, 3 days) of 29 µM.

`COc1cc(C(=O)NC[C@](O)(c2cc(C(C)(C)O)c(Cl)c(-c3ccc(F)cc3)n2)C2CC2)cc2cc(C(F)(F)F)cnc12` [compound 331] showed an EC50 [1, 7] of 0.0038 µM and a CC50 at 3 days ([3]; TOX HELA CC50) of 14 µM.

`COc1cc(C(=O)NC[C@](O)(c2cc(C(C)(C)O)c(F)c(-c3ccc(F)cc3)n2)C2CC2)cc2cc(C3CC3)cnc12` [compound 332, (-)Cyclopropyl-N-(2-Cyclopropyl-2-(5-Fluoro-6-(4-Fluorophenyl)-4-(2-Hydroxypropan-2-yl)Pyridin-2-yl)-2-Hydroxyethyl)-8-Methoxyquinoline-6-Carboxamide] showed an EC50 [1, 7] of 0.033 µM and a CC50 at 3 days ([3]; TOX HELA CC50) of 14 µM.

`COc1cc(C(=O)NC[C@@](O)(c2cc(C(C)(C)O)c(F)c(-c3ccc(F)cc3)n2)C(F)(F)F)cc2cc(C)nnc12` [compound 334, (+)Methoxy-3-Methyl-N-(3,3,3-Trifluoro-2-(5-Fluoro-6-(4-Fluorophenyl)-4-(2-Hydroxypropan-2-yl)Pyridin-2-yl)-2-Hydroxypropyl)Cinnoline-6-Carboxamide] showed an EC50 [1, 7] of 0.245 µM and a CC50 at 3 days ([3]; TOX HELA CC50) of 17 µM.

Compound `Cc1cc2cc(C(=O)NC[C@](O)(c3cc(C(C)(C)O)c(F)c(-c4ccc(F)cc4)n3)C3(F)CC3)cc(OC3CC3)c2nn1` [compound 335, (-)Cyclopropoxy-N-(2-(5-Fluoro-6-(4-Fluorophenyl)-4-(2-Hydroxypropan-2-yl)Pyridin-2-yl)-2-(1-Fluorocyclopropyl)-2-Hydroxyethyl)-3-Methylcinnoline-6-Carboxamide] has an EC50 [1, 6] of 0.021 µM and a CC50 ([2]; human, 3 days) of about 14 µM.

With `COc1cc(C(=O)NCC(O)(c2cc(C(C)(C)N)c(F)c(-c3ccc(F)c(Cl)c3)n2)C(F)(F)F)cc2cccnc12` (stereo not shown) [reference compound] the EC50 ([1]; human respiratory syncytial virus, HeLa, comparison table 5.3, antiviral RSV assay of Example 5.1) was 0.053 µM and the CC50 at 3 days ([3]; CC50) was 13 µM.
